ChEMBL document CHEMBL1201862, “PubChem BioAssay data set” (2004)
“And” between values parts separate entries of the source, which are not always exact repeats. Equal entries are not always repeated.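 Cultured in 96-well plates, cells were exposed to test compound for 48 hours across five concentrations. At the GI50, growth is halved.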 The source made the active and inactive calls. Cut-off read from the data, not from the text of the source: active = GI50 up to about 1.1 µM and inactive = higher.

Key:
Test in all cases: inhibition of tumour cell growth, NCI panel, 48 h
[1] = system: A498
[2] = system: CCRF-CEM
[3] = system: COLO 205
[4] = system: EKVX
[5] = system: LOX IMVI
[6] = system: M14
[7] = system: MCF7
[8] = system: MDA-MB-231
[9] = system: MDA-MB-435
[10] = system: NCI-H226
[11] = system: RPMI-8226
[12] = system: RXF 393
[13] = system: SF-268
[14] = system: SF-295
[15] = system: SK-MEL-28
[16] = system: SN12C
[17] = system: SR
[18] = system: TK-10
[19] = system: U-251
[20] = system: OVCAR-5

## [N-]=[N+]=Nc1cc(=O)[nH]nc1-c1ccccc1
[1]
  GI50: > 100 µM (inactive)
[2]
  GI50: > 100 µM (inactive)
[3]
  GI50: > 100 µM (inactive)
[4]
  GI50: > 100 µM (inactive)
[5]
  GI50: > 100 µM (inactive)
[6]
  GI50: > 100 µM (inactive)
[7]
  GI50: > 100 µM (inactive)
[8]
  GI50: > 100 µM (inactive)
[9]
  GI50: > 100 µM (inactive)
[10]
  GI50: > 100 µM (inactive)
[11]
  GI50: > 100 µM (inactive)
[12]
  GI50: > 100 µM (inactive)
[13]
  GI50: > 100 µM (inactive)
[14]
  GI50: > 100 µM (inactive)
[15]
  GI50: > 100 µM (inactive)
[16]
  GI50: > 100 µM (inactive)
[17]
  GI50: > 100 µM (inactive)
[18]
  GI50: > 100 µM (inactive)
[19]
  GI50: > 100 µM (inactive)

## Oc1c(C2=NNC(c3cccs3)C2)ccc2ccccc12 (stereo not drawn)
[1]
  GI50: 26.2 µM (inactive)
[2]
  GI50: 11.1 µM (inactive)
[3]
  GI50: 19.5 µM (inactive)
[6]
  GI50: 14.4 µM (inactive)
[7]
  GI50: 15.6 µM (inactive)
[8]
  GI50: 26.1 µM (inactive)
[9]
  GI50: 18.3 µM (inactive)
[10]
  GI50: 24.9 µM (inactive)
[20]
  GI50: 29.6 µM (inactive)
[11]
  GI50: 17.7 µM (inactive)
[12]
  GI50: 42.6 µM (inactive)
[13]
  GI50: 10.9 µM (inactive)
[14]
  GI50: 18.2 µM (inactive)
[15]
  GI50: 36 µM (inactive)
[16]
  GI50: 19.4 µM (inactive)
[17]
  GI50: 8.89 µM (inactive)
[18]
  GI50: 28.1 µM (inactive)
[19]
  GI50: 25 µM (inactive)

## COC1OC(C(=O)CP(=O)(OC)OC)C(OCc2ccccc2)C(OCc2ccccc2)C1OCc1ccccc1 (stereo not drawn)
[1]
  GI50: 14.1 µM (inactive)
[2]
  GI50: 33.1 µM (inactive) and 25.1 µM (inactive)
[3]
  GI50: 18.5 µM (inactive) and 18.2 µM (inactive)
[4]
  GI50: 15 µM (inactive) and 16.9 µM (inactive)
[5]
  GI50: 17.7 µM (inactive) and 17.2 µM (inactive)
[6]
  GI50: 15.3 µM (inactive) and 16.6 µM (inactive)
[7]
  GI50: 16.4 µM (inactive)
[8]
  GI50: 15.9 µM (inactive) and 16.7 µM (inactive)
[9]
  GI50: 18.7 µM (inactive) and 17 µM (inactive)
[10]
  GI50: 19.2 µM (inactive) and 18.8 µM (inactive)
[20]
  GI50: 15.4 µM (inactive) and 17.4 µM (inactive)
[12]
  GI50: 14.8 µM (inactive) and 12.1 µM (inactive)
[13]
  GI50: 16.9 µM (inactive) and 17.7 µM (inactive)
[14]
  GI50: 16.5 µM (inactive) and 14.5 µM (inactive)
[15]
  GI50: 16.9 µM (inactive) and 21 µM (inactive)
[16]
  GI50: 16.4 µM (inactive)
[17]
  GI50: 16.4 µM (inactive) and 25.4 µM (inactive)
[18]
  GI50: 17.1 µM (inactive) and 18.8 µM (inactive)
[19]
  GI50: 16.7 µM (inactive) and 15.6 µM (inactive)

## CC(/C=C/C=C\C=C\C=C(/C)C(=O)NC(C)CO)=C\C(C)C(O)/C(C)=C/C(C)CCc1ccccc1 (stereo not drawn)
[1]
  GI50: 12.6 µM (inactive)
[2]
  GI50: 8.85 µM (inactive)
[3]
  GI50: 13.7 µM (inactive)
[4]
  GI50: 4.73 µM (inactive)
[6]
  GI50: 8 µM (inactive)
[7]
  GI50: 1.84 µM (inactive)
[8]
  GI50: 14.6 µM (inactive)
[9]
  GI50: 12.8 µM (inactive)
[10]
  GI50: 8.65 µM (inactive)
[20]
  GI50: 10.9 µM (inactive)
[11]
  GI50: 4.14 µM (inactive)
[12]
  GI50: 12.9 µM (inactive)
[13]
  GI50: 13.5 µM (inactive)
[14]
  GI50: 0.0236 µM (active)
[15]
  GI50: 12.9 µM (inactive)
[16]
  GI50: 12.8 µM (inactive)
[17]
  GI50: 1.14 µM (inactive)
[18]
  GI50: 14 µM (inactive)
[19]
  GI50: 14.9 µM (inactive)

## Cc1nnc([C@@]2(C)CC[C@H]3[C@@H](CCC4=CC(=O)CC[C@@]43C)[C@@H]2CC#N)o1
[1]
  GI50: > 100 µM (inactive)
[2]
  GI50: > 100 µM (inactive)
[3]
  GI50: > 100 µM (inactive)
[4]
  GI50: > 100 µM (inactive)
[5]
  GI50: > 100 µM (inactive)
[6]
  GI50: > 100 µM (inactive)
[7]
  GI50: > 100 µM (inactive)
[8]
  GI50: > 100 µM (inactive)
[9]
  GI50: > 100 µM (inactive)
[10]
  GI50: > 100 µM (inactive)
[20]
  GI50: > 100 µM (inactive)
[11]
  GI50: > 100 µM (inactive)
[12]
  GI50: > 100 µM (inactive)
[13]
  GI50: > 100 µM (inactive)
[14]
  GI50: > 100 µM (inactive)
[16]
  GI50: > 100 µM (inactive)
[17]
  GI50: > 100 µM (inactive)
[18]
  GI50: > 100 µM (inactive)
[19]
  GI50: > 100 µM (inactive)

## CC(C)(C)OC(=O)N1CCc2[nH][nH]c(=O)c2C1
[1]
  GI50: > 100 µM (inactive)
[2]
  GI50: > 100 µM (inactive)
[3]
  GI50: > 100 µM (inactive)
[4]
  GI50: > 100 µM (inactive)
[6]
  GI50: > 100 µM (inactive)
[7]
  GI50: > 100 µM (inactive)
[8]
  GI50: > 100 µM (inactive)
[9]
  GI50: > 100 µM (inactive)
[10]
  GI50: > 100 µM (inactive)
[11]
  GI50: > 100 µM (inactive)
[12]
  GI50: > 100 µM (inactive)
[13]
  GI50: > 100 µM (inactive)
[14]
  GI50: > 100 µM (inactive)
[15]
  GI50: > 100 µM (inactive)
[16]
  GI50: > 100 µM (inactive)
[17]
  GI50: > 100 µM (inactive)
[18]
  GI50: > 100 µM (inactive)
[19]
  GI50: > 100 µM (inactive)

## Cc1cn(C2CC(COCc3ccccc3)N(CCO[Si](C)(C)C(C)(C)C)O2)c(=O)[nH]c1=O (stereo not drawn)
[1]
  GI50: 15.2 µM (inactive)
[3]
  GI50: 15.1 µM (inactive)
[6]
  GI50: 15 µM (inactive)
[7]
  GI50: 18.5 µM (inactive)
[8]
  GI50: 18.7 µM (inactive)
[9]
  GI50: 13 µM (inactive)
[20]
  GI50: 17.7 µM (inactive)
[11]
  GI50: 15.1 µM (inactive)
[12]
  GI50: 15.5 µM (inactive)
[13]
  GI50: 21.3 µM (inactive)
[14]
  GI50: 16.4 µM (inactive)
[15]
  GI50: 16.8 µM (inactive)
[16]
  GI50: 11 µM (inactive)
[17]
  GI50: 35.1 µM (inactive)
[18]
  GI50: 14.3 µM (inactive)
[19]
  GI50: 19.2 µM (inactive)

## CC1(C)N=C(N)N=C(N)N1c1cccc(OCCOc2ccc([N+](=O)[O-])cc2)c1
[1]
  GI50: > 100 µM (inactive)
[2]
  GI50: 7.76 µM (inactive)
[3]
  GI50: 37.4 µM (inactive)
[4]
  GI50: > 100 µM (inactive)
[5]
  GI50: 8.97 µM (inactive)
[6]
  GI50: 34.8 µM (inactive)
[7]
  GI50: 16 µM (inactive)
[8]
  GI50: > 100 µM (inactive)
[9]
  GI50: 5.04 µM (inactive)
[20]
  GI50: > 100 µM (inactive)
[11]
  GI50: 16.5 µM (inactive)
[12]
  GI50: 21.8 µM (inactive)
[13]
  GI50: 5.04 µM (inactive)
[14]
  GI50: > 100 µM (inactive)
[15]
  GI50: 53.3 µM (inactive)
[16]
  GI50: 6.49 µM (inactive)
[17]
  GI50: 0.238 µM (active)
[18]
  GI50: > 100 µM (inactive)
[19]
  GI50: 7.33 µM (inactive)

## COC(=O)[C@@H](COC(=O)/C=C/c1ccc(OC(C)=O)c(OC(C)=O)c1)NC(=O)/C=C/c1ccc(OC(C)=O)c(OC(C)=O)c1
[1]
  GI50: 80.9 µM (inactive)
[2]
  GI50: 9.98 µM (inactive)
[3]
  GI50: 15.7 µM (inactive)
[4]
  GI50: 16.3 µM (inactive)
[5]
  GI50: 11.3 µM (inactive)
[6]
  GI50: 14.6 µM (inactive)
[7]
  GI50: 33.9 µM (inactive)
[8]
  GI50: 22.6 µM (inactive)
[9]
  GI50: 29.5 µM (inactive)
[10]
  GI50: 35.6 µM (inactive)
[20]
  GI50: 45.8 µM (inactive)
[11]
  GI50: 38.2 µM (inactive)
[12]
  GI50: 35.1 µM (inactive)
[13]
  GI50: 29.9 µM (inactive)
[15]
  GI50: 70.8 µM (inactive)
[16]
  GI50: 18 µM (inactive)
[17]
  GI50: 8.49 µM (inactive)
[19]
  GI50: 33.7 µM (inactive)

## C=C1C[C@@H](O)[C@@H](Br)C(C)(C)[C@@]12C=CC(=O)CC2
[1]
  GI50: > 100 µM (inactive)
[2]
  GI50: > 100 µM (inactive)
[3]
  GI50: 1.77 µM (inactive)
[5]
  GI50: > 100 µM (inactive)
[6]
  GI50: > 100 µM (inactive)
[7]
  GI50: > 100 µM (inactive)
[8]
  GI50: > 100 µM (inactive)
[9]
  GI50: > 100 µM (inactive)
[20]
  GI50: 3.18 µM (inactive)
[11]
  GI50: > 100 µM (inactive)
[12]
  GI50: > 100 µM (inactive)
[13]
  GI50: > 100 µM (inactive)
[14]
  GI50: > 100 µM (inactive)
[15]
  GI50: > 100 µM (inactive)
[16]
  GI50: > 100 µM (inactive)
[17]
  GI50: > 100 µM (inactive)
[18]
  GI50: 12.6 µM (inactive)
[19]
  GI50: > 100 µM (inactive)
